Laboratory results from PMC9804781, “Identification of a Novel Pseudo‐Natural Product Type IV IDO1 Inhibitor Chemotype” (Angewandte Chemie (International Ed. in English), 2022).

Molecular target: T1, His-tagged IDO2 (Homo sapiens, UniProt Q6ZQW0)
T1 construct: His; purchased BPS Bioscience 72035 (kit)
T1 sequence (Q6ZQW0 1-407): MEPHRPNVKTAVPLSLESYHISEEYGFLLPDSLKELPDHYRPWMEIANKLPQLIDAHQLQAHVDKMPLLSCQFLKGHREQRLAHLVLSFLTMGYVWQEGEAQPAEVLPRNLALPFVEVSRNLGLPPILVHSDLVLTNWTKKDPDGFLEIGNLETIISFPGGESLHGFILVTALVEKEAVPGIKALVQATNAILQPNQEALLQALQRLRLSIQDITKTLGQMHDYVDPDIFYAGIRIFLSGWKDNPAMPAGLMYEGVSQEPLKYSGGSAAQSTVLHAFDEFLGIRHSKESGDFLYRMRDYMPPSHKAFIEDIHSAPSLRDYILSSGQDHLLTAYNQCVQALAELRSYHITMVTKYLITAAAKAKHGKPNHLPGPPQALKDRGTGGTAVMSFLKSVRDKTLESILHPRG
Experiment: IDO2 Activity Assay
Assay type: biochemical
Conditions: 50 µM; 90 min + 120 min at 30 °C
Procedure: Inhibition of indoleamine 2,3-dioxygenase 2 (IDO2) was tested using the Universal IDO1/IDO2/TDO Inhibitor Screening Assay Kit (cat# 72035, BPS Bioscience, US). 10 µg His-tagged IDO2 in IDO2 Assay Buffer was incubated with Complete IDO2 Reaction Solution (1% (v/v) component 2 in component 1) and 50 µM Test Inhibitor (0.5% (v/v) DMSO) for 90 min at 30°C with slow shaking in the dark prior to initiation of the reaction by addition of 20% (v/v) IDO2 Substrate. Samples were incubated for 120 min at 30°C with slow shaking in the dark. Afterwards, absorbance at 321 nm was recorded on the Spark® Multimode Microplate Reader (Tecan, AT), all values were subtracted by the background and normalized to the DMSO control.

- inhibition of IDO2 (result in words): did not inhibit
Structure (SMILES): CCOC(=O)C1=CC[C@](C(=O)OC)(c2cc3ccccc3n2C)N(S(=O)(=O)c2ccc(C)cc2)[C@@H]1C(=O)OC(C)(C)C [Compound 3d]
